The record followed here is patent US20140288044A1, “COMPOSITIONS AND THERAPEUTIC USES OF IKK-RELATED KINASE EPSILON AND TANKBINDING KINASE 1 INHIBITORS” (Alzheimer's Institute of America, Inc., priority 2011, published 2014).

pIC50: −log10 of the molar value. Where two headings read alike, the source gives them in different places. Bounds are passed on as bounds.

One assay concerns the target T1, IKKε (Homo sapiens, UniProt Q14164).
T1 construct: His-tag (in-house Sf9 preparation) or GST-tag (purchased Invitrogen preparation); these are alternatives, not both on one protein; host or cells: Sf9 cells
T1 sequence (Q14164 1-716): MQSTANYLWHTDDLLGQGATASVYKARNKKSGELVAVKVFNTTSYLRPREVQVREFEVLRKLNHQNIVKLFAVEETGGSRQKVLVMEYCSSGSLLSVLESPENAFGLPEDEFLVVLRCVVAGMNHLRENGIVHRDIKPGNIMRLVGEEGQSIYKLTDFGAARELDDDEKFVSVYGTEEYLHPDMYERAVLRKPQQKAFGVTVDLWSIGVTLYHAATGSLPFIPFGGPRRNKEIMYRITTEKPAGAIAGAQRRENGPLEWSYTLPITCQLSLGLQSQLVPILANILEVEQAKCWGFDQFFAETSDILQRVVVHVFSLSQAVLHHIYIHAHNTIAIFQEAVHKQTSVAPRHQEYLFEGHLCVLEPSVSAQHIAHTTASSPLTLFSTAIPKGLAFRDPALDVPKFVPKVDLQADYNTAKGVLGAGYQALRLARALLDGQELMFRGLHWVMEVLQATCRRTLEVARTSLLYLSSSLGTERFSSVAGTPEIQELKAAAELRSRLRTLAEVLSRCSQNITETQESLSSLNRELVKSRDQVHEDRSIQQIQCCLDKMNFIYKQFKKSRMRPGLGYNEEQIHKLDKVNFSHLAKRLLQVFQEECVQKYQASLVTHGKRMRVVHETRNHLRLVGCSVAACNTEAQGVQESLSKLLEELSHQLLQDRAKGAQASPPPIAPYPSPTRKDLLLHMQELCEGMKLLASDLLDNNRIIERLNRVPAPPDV
Put plainly: In-vitro IKKε kinase assay (radiolabelled ATP, filterplate). It counts as biochemical. The method, boiled down:
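His-tagged IKKε from Sf9 cells or GST-tagged IKKε, with myelin basic protein, casein or dephosphorylated casein as substrate and 32 μM ATP (2× Km) plus [γ^33]ATP. "Normal" assay used 0.1 μg/ml enzyme; "sensitized" used 0.015 μg/ml with dephosphorylated casein only. Stopped after 30–45 min with phosphoric acid; P-81 filter counts normalized to DMSO after background subtraction.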

Assay [1] relates to IKKε-mediated phosphorylation of IRF3. Put plainly: ELISA for in-situ phosphorylation of IRF3 (phospho-Ser396) in HEK293T cells cotransfected with IRF3 and IKKε. It counts as cell-based. The settings on record: Homo sapiens, HEK-293T, 20 h, HEK293T cells, 20 hours, read-out: IC50, in-situ IKKε-mediated phosphorylation of IRF3. The method, boiled down:
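HEK293T cells cotransfected with IRF3 and IKKε were treated with compound for 20 h, and lysates were assayed by ELISA for phospho-Ser396 IRF3, normalized to DMSO. Viability was checked in parallel by CellTiter-Glo. For TBK1, cells cotransfected with IRF7 and TBK1 were treated overnight and probed by Western blot for phospho-Ser477/Ser479 IRF7.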
For orientation: In an ELISA, binding on a coated surface is turned into a signal by an enzyme label.

[2] abbreviates: in-vitro IKKε kinase inhibition assays, given as 0.005 μM (5 nM), read-out: IKKε kinase inhibitory activity (IC50 value).
Where [3] appears, read: range given from about 1 μM to about 250 nM.

What is called pIC50 is the IC50 on a negative log10 scale, so that one unit is a factor of ten. As to `C[C@@H](O)C(=O)N(C)Cc1ccc(Nc2nccc(-c3ccc(OC4CCOCC4)c(C#N)c3)n2)cn1` [Example Compound 57, (2R)—N-{[5-({4-[3-Cyano-4-(tetrahydro-2H-pyran-4-yloxy)phenyl]pyrimidin-2-yl}amino)pyridin-2-yl]methyl}-2-hydroxy-N-methylpropanamide], the results for the pIC50 (at IKKε (setting [2]); in assay [1] (setting [3])) were greater than 8.30 and 6.00 to 6.60, respectively.

For the compound `CN(Cc1ccc(Nc2nccc(-c3ccc(OC4CCOCC4)c(C#N)c3)n2)cn1)C(=O)CO` [Example Compound 58, N-{[5-({4-[3-Cyano-4-(tetrahydro-2H-pyran-4-yloxy)phenyl]pyrimidin-2-yl}amino)pyridin-2-yl]methyl}-2-hydroxy-N-methylacetamide], the pIC50 is greater than 8.30 at IKKε (setting [2]) and 6.60 to 7.00 in assay [1].

For the compound `CN(Cc1ccc(Nc2nccc(-c3ccc(OC4CCOCC4)c(C#N)c3)n2)cn1)C(=O)C1(O)CC1` [Example Compound 59, N-{[5-({4-[3-Cyano-4-(tetrahydro-2H-pyran-4-yloxy)phenyl]pyrimidin-2-yl}amino)pyridin-2-yl]methyl}-1-hydroxy-N-methylcyclopropanecarboxamide], the pIC50 on IKKε (setting [2]) was greater than 8.30; in assay [1] (setting [3]), 6.00 to 6.60.

`CN(Cc1ccc(Nc2nccc(-c3ccc(OC4CCOCC4)c(C#N)c3)n2)cn1)C(=O)C1(N)CC1` [Example Compound 60, 1-Amino-N-{[5-({4-[3-cyano-4-(tetrahydro-2H-pyran-4-yloxy)phenyl]pyrimidin-2-yl}amino)pyridin-2-yl]methyl}-N-methylcyclopropanecarboxamide]: the figures for the pIC50 (at IKKε (setting [2]); in assay [1]) were greater than 8.30 and 6.60 to 7.00, respectively.

With `CC(c1ccc(Nc2nccc(-c3ccc(OC4CCOCC4)c(C#N)c3)n2)cn1)N1CC(O)C1` (stereo not drawn) [Example Compound 63, 5-[2-({6-[1-(3-Hydroxyazetidin-1-yl)ethyl]pyridin-3-yl}amino)pyrimidin-4-yl]-2-(tetrahydro-2H-pyran-4-yloxy)benzonitrile], the results for the pIC50 (at IKKε (setting [2]); in assay [1]) were greater than 8.30 and 6.60 to 7.00, respectively.

Take `N#Cc1cc(-c2ccnc(Nc3ccnc(CN4CC(O)C4)c3)n2)ccc1OC1CCOCC1` [Example Compound 70, 5-[2-({2-[(3-Hydroxyazetidin-1-yl)methyl]pyridin-4-yl}amino)pyrimidin-4-yl]-2-(tetrahydro-2H-pyran-4-yloxy)benzonitrile]: the results for the pIC50 (at IKKε (setting [2]); in assay [1] (setting [3])) were greater than 8.30 and 6.00 to 6.60, respectively.

As for `N#Cc1cc(-c2ccnc(Nc3ccnc(CN4CCC(F)(F)C4)c3)n2)ccc1OC1CCOCC1` [Example Compound 71, 5-[2-({2-[(3,3-Difluoropyrrolidin-1-yl)methyl]pyridin-4-yl}amino)pyrimidin-4-yl]-2-(tetrahydro-2H-pyran-4-yloxy)benzonitrile], the pIC50 at IKKε (setting [2]) is greater than 8.30; in assay [1], greater than 7.00.

`N#Cc1cc(-c2ccnc(Nc3ccc(-n4ccnc4)nc3)n2)ccc1OC1CCOCC1` [Example Compound 75, 5-(2-{[6-(1H-Imidazol-1-yl)pyridin-3-yl]amino}pyrimidin-4-yl)-2-(tetrahydro-2H-pyran-4-yloxy)benzonitrile]: the results for the pIC50 (on IKKε (setting [2]); in assay [1]) were greater than 8.30 and greater than 7.00, respectively.

Regarding `N#Cc1cc(-c2ccnc(Nc3ccc(-n4cncn4)nc3)n2)ccc1OC1CCOCC1` [Example Compound 76, 2-(Tetrahydro-2H-pyran-4-yloxy)-5-(2-{[6-(1H-1,2,4-triazol-1-yl)pyridin-3-yl]amino}pyrimidin-4-yl)benzonitrile], the pIC50 on IKKε ("sensitized" assay, read-out: IC50, inhibition of the kinase activity of IKKε) was greater than 8.30; on IKKε (setting [2]) it was greater than 8.30; in assay [1] it was 6.60 to 7.00.

With `Cn1cc(-c2ccc(Nc3nccc(-c4ccc(OC5CCOCC5)c(C#N)c4)n3)cn2)cn1` [Example Compound 77, 5-(2-{[6-(1-Methyl-1H-pyrazol-4-yl)pyridin-3-yl]amino}pyrimidin-4-yl)-2-(tetrahydro-2H-pyran-4-yloxy)benzonitrile], the results for the pIC50 (on IKKε (setting [2]); in assay [1]) were greater than 8.30 and greater than 7.00, respectively.
